Assay results as given in US7759072B2, “Immunoassay method and reagent therefor” (Sekisui Medical Co., Ltd., priority 2005, dated 2010).

The compounds below were run against T1, apo-D-amino acid oxidase (Sus scrofa, UniProt P00371) (assay: Comparison of reactivity between various D-amino acids as substrates of FAD-reactivated apo-D-amino acid oxidase (peroxidase/DA-64 colorimetric, Hitachi 7170)). Details: 5 mM D-amino acid in reagent 1, 50 mM Tris-HCl pH 8.3; 10 U/ml apo-D-amino acid oxidase, FAD sample; 700 nm; D-valine = 100.
T1 construct: Apo-D-amino acid oxidase extracted and purified from the porcine kidneys is known and can be suitably used; purchased Calzyme Inc. 176A0025
T1 sequence (P00371 whole entry): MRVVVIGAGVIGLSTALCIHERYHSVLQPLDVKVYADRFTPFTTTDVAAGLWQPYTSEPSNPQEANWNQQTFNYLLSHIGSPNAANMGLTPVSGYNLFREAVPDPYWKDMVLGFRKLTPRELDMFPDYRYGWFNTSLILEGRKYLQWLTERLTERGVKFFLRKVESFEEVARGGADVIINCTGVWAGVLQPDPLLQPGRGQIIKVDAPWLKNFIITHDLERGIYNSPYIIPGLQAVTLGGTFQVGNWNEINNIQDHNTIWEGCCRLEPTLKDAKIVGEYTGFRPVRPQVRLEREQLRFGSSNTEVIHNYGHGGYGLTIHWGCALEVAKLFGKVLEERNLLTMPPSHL
Assay type: biochemical, porcine
Method: Reagent 1 containing 50 mM Tris-HCl (pH 8.3), 5 mM DA-64 (Wako Pure Chemical Industries), and 5 mM D-amino acid, reagent 2 containing 10 U/ml apo-D-amino acid oxidase (Calzyme Inc., Catalog No. 176A0025) and 5 U/ml peroxidase, and aqueous FAD solution as a sample were applied to a Hitachi 7170 automated analyzer at a setting of two-point end-mode and using a parameters of 7 μl for a sample, 180 μl for R1, 90 μl for R2, and 700 nm for a wavelength for determination.
As in 1), the activity of the reconstituted apoenzyme was confirmed. Assays only varying types of the D-amino acids were then performed. As D-amino acids, D-forms of Ala, Met, Val, Ile, Phe, Pro, Ser, Thr, Asn, Leu, Tyr, Trp, Asp, Glu, His, and Arg were each used. The percent reactivities of the above-mentioned various D-amino acids were calculated to the value of D-valine which was defined as 100.

Structure (SMILES) | percent reactivity of D-amino acid (relative to D-valine defined as 100)
N[C@H](Cc1ccccc1)C(=O)O [D-Phe] | 170%
O=C(O)[C@H]1CCCN1 [D-Pro, D-proline] | 374%
NC(N)=NCCCC(N)C(=O)O [D-Arg] | 8%
CSCC[C@@H](N)C(=O)O [D-Met] | 322%
N[C@H](Cc1ccc(O)cc1)C(=O)O [D-Tyr, D-tyrosine] | 159%
N[C@H](Cc1c[nH]c2ccccc12)C(=O)O [D-Trp] | 14%

Now from value to compound:

percent reactivity of D-amino acid (relative to D-valine defined as 100) | Structure (SMILES)
97% | CC(C)C[C@@H](N)C(=O)O [D-Leu]
136% | C[C@@H](N)C(=O)O [D-Ala]
178% | CC[C@@H](C)[C@@H](N)C(=O)O [D-Ile]
117% | N[C@H](CO)C(=O)O [D-Ser]
100% | CC(C)[C@@H](N)C(=O)O [D-Val, D-valine]
